Key:
seminal vesicles [1] = assay: Assay for Antiandrogenic Activity (Oral Administration), seminal vesicle weight; format: in vivo, SD-JCL male rats (castrated); conditions: 3 mg orally, 7 days, with testosterone propionate 0.02 mg/day s.c.; Table 2
Method: (§1) Assay for Antiandrogenic Activity (Oral Administration)
(§2) The three week-old SD-JCL male rats were castrated and the drug treatment was started from three days after the castration. The rats were divided into groups; one group consists of six rats. One group was treated with 0.02 mg of testosterone propionate in sesame oil a day by injecting subcutaneously and the other groups were treated with 0.02 mg of testosterone propionate and simultaneously treated orally with a suspension of 3 mg of the test compound in sesame oil. The castrated control group was treated with sesame oil. This treatment was continued for 7 days, successively. The rats were killed 24 hours after the last treatment and the seminal vesicles and ventral prostates were taken out and weighed.

ventral prostates [2] = assay: Assay for Antiandrogenic Activity (Oral Administration), ventral prostate weight; format: in vivo, SD-JCL male rats (castrated); conditions: 3 mg orally, 7 days, with testosterone propionate 0.02 mg/day s.c.; Table 2
Method: as §1, §2

[3] = test system: Shionogi-carcinoma 115 (SC-115); assay: Assay for growth inhibitory activity against androgen-dependent tumor (Shionogi-carcinoma 115); format: in vivo, mice (castrated); conditions: 14 days
Text: The followings show an assay for antiandrogenic activity against androgen-dependent tumor, Shionogi-carcinoma 115 (SC-115). The SC-115 is a tumor cell which grows in the presence of an androgen and its hormone dependency is widely known as a prostatic cancer model. Therefore, the androgenic activity is also estimated by examining the growth inhibition effect against this tumor.
Assay for growth inhibitory activity against androgen-dependent tumor (Shionogi-carcinoma 115)
The six week-old mice were castrated and […] of Shionogi-carcinoma tumor pieces was grafted into the back subcutaneously on the fifth day from the castration. The grafted mice were divided into groups, each consisting of seven mice, and the drug treatment was started immediately after the graft. One group was intact with any drug, and the 2nd group was treated subcutaneously with 0.1 mg of testosterone propionate a day. The other groups were treated subcutaneously with a suspension of 0.1 mg of testosterone propionate and 0.1 to 2.0 mg per day of test compounds a day as a conventional steroid solution. This treatment was carried out for 14 days, successively. The mice were killed next day of the last treatment and the tumor was taken out to weigh.

ventral prostates [4] = assay: Assay for Antiandrogenic Activity (Subcutaneous administration), ventral prostate weight; format: in vivo, SD-JCL male rats (castrated); conditions: for Weight (Mean mg ± S.E.) B* (prostate) / I. R. (%) B* (Inhibition rate, prostate): 7 days; for Weight (Mean mg ± S.E.) B* (prostate) / I. R. (%) B* (prostate): Table 1-2; for I. R. (%) B* (Inhibition rate, prostate): with testosterone propionate 0.02 mg/day, Table 1-1
Method: (§3) Assay for Antiandrogenic Activity (Subcutaneous administration)
(§4) The three week-old SD-JCL male rats were castrated and the drug treatment was started from three days after the castration. The rats were divided into groups; one group consists of six rats. One group was intact with any drug, the 2nd group was treated subcutaneously with a solution or suspension of 0.02 mg of testosterone propionate in sesame oil a day, and the other groups was treated with 0.1 to 3 mg of the test compound and 0.02 mg of testosterone propionate in sesame oil a day. This treatment was carried out for 7 days, successively. The rats were killed next day of the last treatment and the seminal vesicles and ventral prostates were taken out and weighed. Antiandrogenic activity of the test compounds were estimated as […] of seminal vesicles and ventral prostates induced by testosterone propionate.

seminal vesicles [5] = assay: Assay for Antiandrogenic Activity (Subcutaneous administration), seminal vesicle weight; format: in vivo, SD-JCL male rats (castrated); conditions: for Weight (Mean mg ± S.E.) A* (seminal vesicle) / I. R. (%) A* (Inhibition rate, seminal vesicle): 7 days; for Weight (Mean mg ± S.E.) A* (seminal vesicle) / I. R. (%) A* (seminal vesicle): Table 1-2; for I. R. (%) A* (Inhibition rate, seminal vesicle): with testosterone propionate 0.02 mg/day, Table 1-1
Method: as §3, §4

[6] = 0.1 mg/day s.c., with testosterone propionate 0.1 mg/day
[7] = 0.5 mg/day s.c., with testosterone propionate 0.1 mg/day
[8] = 2.0 mg/day s.c., with testosterone propionate 0.1 mg/day
[9] = 0.1 mg/day s.c., with testosterone propionate
[10] = 0.3 mg/day s.c., with testosterone propionate
[11] = 1 mg/day s.c., with testosterone propionate
[12] = 3 mg/day s.c., with testosterone propionate
[13] = testosterone propionate alone, 0.02 mg/day s.c.

CC1=C2CCC3(C)C(OC4=CCCCCCC4)CCC3C2CC2CCC(=O)C=C12 (stereo not shown) was tested, and the “I. R. (%) A* (seminal vesicle)” value (seminal vesicles [1]) was 39% and the “I. R. (%) B* (prostate)” value (ventral prostates [2]) was 34%.
CC1=C2CCC3(C)C(O)C(Br)CC3C2CC2CCC(=O)C=C12 (stereo not shown) was tested, and the “Inhibition Rate (%) of tumor weight” value [3, 6] was 11%, the “Tumor Weight (Mean mg ± S.E.)” value [3, 6] was 2871 ± 277 mg and the “Inhibition Rate (%) of tumor weight” value [3, 7] was 40%. The “Tumor Weight (Mean mg ± S.E.)” value [3, 7] was 1950 ± 144 mg, the “Inhibition Rate (%) of tumor weight” value [3, 8] was 69% and the “Tumor Weight (Mean mg ± S.E.)” value [3, 8] was 1004 mg.
In the case of CC1=C2CCC3(C)C(O)CCC3C2CC2CCC(=O)C=C12 (stereo not shown) [drawing 56], the “Inhibition Rate (%) of tumor weight” value [3, 6] was 48%, the “Tumor Weight (Mean mg ± S.E.)” value [3, 6] was 1682 ± 177 mg and the “Inhibition Rate (%) of tumor weight” value [3, 7] was 59%. For the same molecule, the “Tumor Weight (Mean mg ± S.E.)” value [3, 7] was 1343 ± 283 mg, the “Inhibition Rate (%) of tumor weight” value [3, 8] was 92% and the “Tumor Weight (Mean mg ± S.E.)” value [3, 8] was 255 mg.
With CC1=C2CCC3(C)C(O)CCC3C2CC2CCC(=O)C=C12 (stereo not shown) [drawing 52] the “Weight (Mean mg ± S.E.) B* (prostate)” value (ventral prostates [4]; [9]) was 37.9 ± 3.0 mg, the “Weight (Mean mg ± S.E.) B* (prostate)” value (ventral prostates [4]; [10]) was 37.3 ± 3.0 mg and the “Weight (Mean mg ± S.E.) B* (prostate)” value (ventral prostates [4]; [11]) was 27.5 ± 2.2 mg. For the same molecule, the “I. R. (%) B* (prostate)” value (ventral prostates [4]; [11]) was 43%, the “Weight (Mean mg ± S.E.) B* (prostate)” value (ventral prostates [4]; [12]) was 23.8 ± 1.6 mg and the “I. R. (%) B* (prostate)” value (ventral prostates [4]; [12]) was 55%. The “Weight (Mean mg ± S.E.) A* (seminal vesicle)” value (“Weight … (seminal vesicle)” for short) (seminal vesicles [5]; [9]) was 19.9 ± 0.6 mg, the “I. R. (%) A* (seminal vesicle)” value (seminal vesicles [5]; [9]) was 31% and the “Weight … (seminal vesicle)” value (seminal vesicles [5]; [10]) was 20.7 ± 1.3 mg. For the same molecule, the “I. R. (%) A* (seminal vesicle)” value (seminal vesicles [5]; [10]) was 27%, the “Weight … (seminal vesicle)” value (seminal vesicles [5]; [11]) was 15.0 ± 0.7 mg and the “I. R. (%) A* (seminal vesicle)” value (seminal vesicles [5]; [11]) was 56%. The “Weight … (seminal vesicle)” value (seminal vesicles [5]; [12]) was 11.4 ± 0.8 mg and the “I. R. (%) A* (seminal vesicle)” value (seminal vesicles [5]; [12]) was 74%.
CCC(=O)O[C@H]1CC[C@H]2[C@@H]3CCC4=CC(=O)CC[C@]4(C)[C@H]3CC[C@]12C [Testosterone propionate, testosterone propionate, reference compound] was tested, and the “Weight (Mean mg ± S.E.) B* (prostate)” value (ventral prostates [4]; [13]) was 40.1 ± 1.3 mg, the “Weight … (seminal vesicle)” value (seminal vesicles [5]; [13]) was 26.1 ± 0.8 mg and the “Tumor Weight (Mean mg ± S.E.)” value ([3]; testosterone propionate alone, 0.1 mg/day s.c.) was 3241 ± 456 mg.
CC1C2=CC(=O)CCC2CC2C1CCC1(C)C(O)CCC21 (stereo not shown) was tested, and the “I. R. (%) A* (Inhibition rate, seminal vesicle)” value (seminal vesicles [5]; 1 mg/day s.c.) was 25%.
CC1=C2CC3(CCC2CC2C1=CCC1(C)C(=O)CCC21)OCCO3 (stereo not shown) was tested, and the “I. R. (%) A* (seminal vesicle)” value (seminal vesicles [1]) was 26% and the “I. R. (%) B* (prostate)” value (ventral prostates [2]) was 25%.
With CC1=C2CCC3(C)C(O)C(F)CC3C2CC2CCC(=O)C=C12 (stereo not shown) the “I. R. (%) B* (Inhibition rate, prostate)” value (ventral prostates [4]; 1 mg/day s.c.) was 52% and the “I. R. (%) A* (Inhibition rate, seminal vesicle)” value (seminal vesicles [5]; 1 mg/day s.c.) was 77%.
In the case of CC1=C2CCC3(C)C(=O)CCC3C2CC2CCC(=O)C=C12 (stereo not shown), the “I. R. (%) B* (Inhibition rate, prostate)” value (ventral prostates [4]; 1 mg/day s.c.) was 42% and the “I. R. (%) A* (Inhibition rate, seminal vesicle)” value (seminal vesicles [5]; 1 mg/day s.c.) was 57%.
For CC1=C2C=CC3(C)C(O)CCC3C2CC2CCC(=O)C=C12 (stereo not shown), the “I. R. (%) B* (Inhibition rate, prostate)” value (ventral prostates [4]; 1 mg/day s.c.) was 44% and the “I. R. (%) A* (Inhibition rate, seminal vesicle)” value (seminal vesicles [5]; 1 mg/day s.c.) was 69%.
For CC1=C2CCC3(C)C(O)C(CBr)CC3C2CC2CCC(=O)C=C12 (stereo not shown), the “I. R. (%) A* (seminal vesicle)” value (seminal vesicles [1]) was 51% and the “I. R. (%) B* (prostate)” value (ventral prostates [2]) was 43%.
For CC1=C2CCC3(C)C(CCC3(C)O)C2CC2CCC(=O)C=C12 (stereo not shown), the “I. R. (%) B* (Inhibition rate, prostate)” value (ventral prostates [4]; 1 mg/day s.c.) was 41% and the “I. R. (%) A* (Inhibition rate, seminal vesicle)” value (seminal vesicles [5]; 1 mg/day s.c.) was 67%.
In the case of CCC(=O)OC1CCC2C3CC4CCC(=O)C=C4C(C)=C3CCC12C (stereo not shown), the “I. R. (%) B* (Inhibition rate, prostate)” value (ventral prostates [4]; 1 mg/day s.c.) was 50% and the “I. R. (%) A* (Inhibition rate, seminal vesicle)” value (seminal vesicles [5]; 1 mg/day s.c.) was 74%.
